Measured values as given in ChEMBL document CHEMBL5365396, “Design, synthesis and anti-tumor evaluation of plinabulin derivatives as potential agents targeting β-tubulin” (Bioorg Med Chem Lett, 2023).
Active and inactive are the calls of the source. The calls are words filed in the database; no cut-off is given here.

Legend:
[1] = system: NCI-H460; test: Antiproliferative activity against human NCI-H460 cells assessed as cell growth inhibition by MTT assay; format: functional, cell-based
[2] = system: HCT-116; test: Antiproliferative activity against human HCT-116 cells assessed as cell growth inhibition by MTT assay; format: functional, cell-based
[3] = system: BXPC-3; test: Antiproliferative activity against human BXPC-3 cells assessed as cell growth inhibition by MTT assay; format: functional, cell-based
[4] = target: T1, Tubulin beta (Homo sapiens) (UniProt P68371+Q9H4B7+Q13509+P04350+Q3ZCM7+P07437+Q13885+Q9BVA1+Q9BUF5+A6NNZ2); test: Induction of beta-tubulin depolymerization in human HCT-116 cells assessed as microtubule disruption at 10 nM incubated for 24 hrs by DAPI staining based immunofluorescence assay relative to control; format: cell-based
[5] = system: HCT-116; test: Induction of cell cycle arrest in human HCT-116 cells assessed as increase in accumulation at G2/M phase by propidium iodide staining based flow cytometry; format: functional; settings: dose 5-20 nM
[6] = system: HCT-116; test: Induction of cell cycle arrest in human HCT-116 cells assessed as increase in accumulation at G2/M phase at 5 nM by propidium iodide staining based flow cytometry relative to control; format: functional
[7] = system: HCT-116; test: Induction of cell cycle arrest in human HCT-116 cells assessed as increase in accumulation at G2/M phase at 10 nM by propidium iodide staining based flow cytometry relative to control; format: functional
[8] = system: HCT-116; test: Induction of cell cycle arrest in human HCT-116 cells assessed as increase in accumulation at G2/M phase at 20 nM by propidium iodide staining based flow cytometry relative to control; format: functional
[9] = system: HCT-116; test: Induction of apoptosis in human HCT-116 cells assessed as increase in late apoptosis cells at 20 nM by Annexin-V-FITC and PI staining based flow cytometry analysis relative to control; format: functional
[10] = system: HCT-116; test: Induction of apoptosis in human HCT-116 cells assessed as increase in early apoptosis cells at 20 nM by Annexin-V-FITC and PI staining based flow cytometry analysis relative to control; format: functional
[11] = system: HCT-116; test: Induction of cell cycle arrest in human HCT-116 cells assessed as accumulation of cells at G1 phase at 5 nM by propidium iodide staining based flow cytometry analysis (reference value: 37.85 %); format: functional
[12] = system: HCT-116; test: Induction of cell cycle arrest in human HCT-116 cells assessed as accumulation of cells at S phase at 5 nM by propidium iodide staining based flow cytometry analysis (reference value: 39.4 %); format: functional
[13] = system: HCT-116; test: Induction of cell cycle arrest in human HCT-116 cells assessed as accumulation of cells at G1 phase at 10 nM by propidium iodide staining based flow cytometry analysis (reference value: 37.85 %); format: functional
[14] = system: HCT-116; test: Induction of cell cycle arrest in human HCT-116 cells assessed as accumulation of cells at S phase at 10 nM by propidium iodide staining based flow cytometry analysis (reference value: 39.4 %); format: functional
[15] = system: HCT-116; test: Induction of cell cycle arrest in human HCT-116 cells assessed as accumulation of cells at G1 phase at 20 nM by propidium iodide staining based flow cytometry analysis (reference value: 37.85 %); format: functional
[16] = system: HCT-116; test: Induction of cell cycle arrest in human HCT-116 cells assessed as accumulation of cells at S phase at 20 nM by propidium iodide staining based flow cytometry analysis (reference value: 39.4 %); format: functional
[17] = Induction of apoptosis in human HCT-116 cells assessed as early apoptotic cells at 5 nM by Annexin-V-FITC and PI staining based flow cytometry (reference value: 3.20 %); format: functional
[18] = system: HCT-116; test: Induction of apoptosis in human HCT-116 cells assessed as late apoptotic cells at 5 nM by Annexin-V-FITC and PI staining based flow cytometry (reference value: 1.75 %); format: functional
[19] = system: HCT-116; test: Induction of apoptosis in human HCT-116 cells assessed as early apoptotic cells at 10 nM by Annexin-V-FITC and PI staining based flow cytometry (reference value: 3.20 %); format: functional
[20] = system: HCT-116; test: Induction of apoptosis in human HCT-116 cells assessed as late apoptotic cells at 10 nM by Annexin-V-FITC and PI based flow cytometry (reference value: 1.75 %); format: functional
[21] = target: T1, Tubulin beta (Homo sapiens); test: Induction of beta-tubulin depolymerization in human HCT-116 cells assessed as disruption of microtubule network by measuring abnormality in formation of spindle bodies at 10 nM measured after 24 hrs by DAPI staining based immunofluorescence assay; format: cell-based

Row | SMILES | IC50 [1] [nM] | IC50 [2] [nM] | IC50 [3] [nM] | other results
1 | CC(=O)Nc1cccc(/C=c2\[nH]c(=O)/c(=C/c3nc[nH]c3C(C)(C)C)[nH]c2=O)c1 | 667 | 238 | 540 | 
2 | CC(C)(C)c1[nH]cnc1/C=c1\[nH]c(=O)/c(=C/c2ccc3[nH]ccc3c2)[nH]c1=O | 223 | 5.9 | 6.7 | 
3 | CC(C)(C)c1[nH]cnc1/C=c1\[nH]c(=O)/c(=C/c2cccc(NC(=O)CN)c2)[nH]c1=O | 843 | 214 | 272 | 
4 | CC(C)(C)c1[nH]cnc1/C=c1\[nH]c(=O)/c(=C/c2cccc(NC(=O)c3cc4ccccc4[nH]3)c2)[nH]c1=O | > 5000 | 2660 | 1760 | 
5 | CC(C)(C)c1[nH]cnc1/C=c1\[nH]c(=O)/c(=C/c2cc3ccccc3[nH]2)[nH]c1=O | 1390 | 3310 | 2770 | 
6 | CC(C)[C@H](CN)C(=O)Nc1cccc(/C=c2\[nH]c(=O)/c(=C/c3nc[nH]c3C(C)(C)C)[nH]c2=O)c1 (stereo in doubt) | 1430 | 31.3 | 31.4 | 
7 | CC(C)(C)C(=O)Nc1cccc(/C=c2\[nH]c(=O)/c(=C/c3nc[nH]c3C(C)(C)C)[nH]c2=O)c1 | 3180 | 2880 | 1890 | 
8 | Cc1ccc(C(=O)Nc2cccc(/C=c3\[nH]c(=O)/c(=C/c4nc[nH]c4C(C)(C)C)[nH]c3=O)c2)c(C)c1 | 1280 | 504 | 2590 | 
9 | CC(C)(C)c1[nH]cnc1/C=c1\[nH]c(=O)/c(=C/c2ccc3cc[nH]c3c2)[nH]c1=O | 1840 | 2900 | 3770 | 
10 | CC(C)(C)c1[nH]cnc1/C=c1\[nH]c(=O)/c(=C/c2c[nH]c3ccccc23)[nH]c1=O | 82.8 | 6.5 | 13.7 | 
11 | CC(C)(C)c1[nH]cnc1/C=c1\[nH]c(=O)/c(=C/c2cccc(NC(=O)C3CC3)c2)[nH]c1=O | 2340 | 730 | 1570 | 
12 | CC(C)(C)c1[nH]cnc1/C=c1\[nH]c(=O)/c(=C/c2cccc(NC(=O)C3CCCCC3)c2)[nH]c1=O | 618 | 1320 | 1020 | 
13 | CC(C)(C)c1[nH]cnc1/C=c1\[nH]c(=O)/c(=C/c2cccc(N)c2)[nH]c1=O | 165 | 15.3 | 80.1 | 
14 | CCC(=O)Nc1cccc(/C=c2\[nH]c(=O)/c(=C/c3nc[nH]c3C(C)(C)C)[nH]c2=O)c1 | 2290 | 243 | 598 | 
15 | COc1ccc(C(=O)Nc2cccc(/C=c3\[nH]c(=O)/c(=C/c4nc[nH]c4C(C)(C)C)[nH]c3=O)c2)cc1 | 1170 | 1040 | 1510 | 
16 | Cc1ccc(F)cc1C(=O)Nc1cccc(/C=c2\[nH]c(=O)/c(=C/c3nc[nH]c3C(C)(C)C)[nH]c2=O)c1 | 1310 | 362 | 1590 | 
17 | CC(C)(C)c1[nH]cnc1/C=c1\[nH]c(=O)/c(=C/c2cccc3[nH]ccc23)[nH]c1=O | 20.9 | 7.3 | 16.7 | Activity [4]: 77%; Activity [5]: Dose-Dependent Effect; fold change (FC) [6]: 1.1; fold change (FC) [7]: 1.4; fold change (FC) [8]: 2.7; fold change (FC) [9]: 3.9; fold change (FC) [10]: 6.4; Activity [11]: 33.6%; Activity [12]: 41.45%; Activity [13]: 32.3%; Activity [14]: 37.05%; Activity [15]: 5.69%; Activity [16]: 41.7%; Activity [17]: 4.9%; Activity [18]: 2%; Activity [19]: 6.15%; Activity [20]: 2.55%; Activity [21]: Active
18 | CC(C)(C)c1[nH]cnc1/C=c1\[nH]c(=O)/c(=C/c2cccc(NC(=O)c3ccccn3)c2)[nH]c1=O | 3850 | 226 | 520 | 
19 | CC(C)C(=O)Nc1cccc(/C=c2\[nH]c(=O)/c(=C/c3nc[nH]c3C(C)(C)C)[nH]c2=O)c1 | 977 | 606 | 1460 | 
20 | CC(C)(C)c1[nH]cnc1/C=c1\[nH]c(=O)/c(=C/c2cccc(NC(=O)C3CCCN3)c2)[nH]c1=O (configuration not stated) | 302 | 72.1 | 22.9 | 
21 | CC(C)(C)c1[nH]cnc1/C=c1\[nH]c(=O)/c(=C/c2cccc(NC(=O)Cc3ccccc3)c2)[nH]c1=O | 1100 | 474 | 1700 | 
22 | CC(C)(C)c1[nH]cnc1/C=c1\[nH]c(=O)/c(=C/c2ccccc2)[nH]c1=O [PLINABULIN] | 30.9 | 8.8 | 18.4 | Activity [4]: 67%; Activity [21]: Active
23 | CC(C)(C)c1[nH]cnc1/C=c1\[nH]c(=O)/c(=C/c2cccc3cc[nH]c23)[nH]c1=O | 286 | 390 | 9.5 | 
24 | CC(C)(C)c1[nH]cnc1/C=c1\[nH]c(=O)/c(=C/c2cccc(NC(=O)C3CCCC3)c2)[nH]c1=O | 743 | 643 | 3130 | 
25 | CC(C)(C)c1[nH]cnc1/C=c1\[nH]c(=O)/c(=C/c2cccc(NC(=O)c3cccc(C(=O)c4ccccc4)c3)c2)[nH]c1=O | > 5000 | > 5000 | 4460 | 
26 | CC(C)(C)c1[nH]cnc1/C=c1\[nH]c(=O)/c(=C/c2cccc(NC(=O)c3cccnc3)c2)[nH]c1=O | 4850 | 1060 | 1600 | 
27 | CC(C)(C)c1[nH]cnc1/C=c1\[nH]c(=O)/c(=C/c2cccc(NC(=O)c3ccccc3)c2)[nH]c1=O | 936 | 47.6 | 398 | 
28 | CC(C)(C)c1[nH]cnc1/C=c1\[nH]c(=O)/c(=C/c2cccc(NC(=O)C3CCC3)c2)[nH]c1=O | 1490 | 895 | 585 | 
29 | CC(C)(C)c1[nH]cnc1/C=c1\[nH]c(=O)/c(=C/c2cccc(NC(=O)c3ccc(F)cc3)c2)[nH]c1=O | 271 | 123 | 595 | 
